Results taken from patent US20190160035A1, “METHOD OF TREATMENT” (QBIOTICS LIMITED, priority 2016, published 2019).

Legend:
[1] = tested on: cutaneous Mast Cell Tumor (MCT); assay: Example 3: long term follow up of cohort 1 dogs for tumor recurrence; format: in vivo
Experimental: The dogs of cohort 1 in Example 2, treated with 1.0 mg Compound 1 per mL, were followed up post-treatment.
Dog GCV-209 was treated by surgical removal of residual tumor soon after study completion (Day 21).

[2] = tested on: MCT (cutaneous and subcutaneous); assay: Example 7: treatment of MCT (repeat of Example 1), complete response and healing by time point; format: in vivo, dogs; conditions: for Complete response: Cumulative % / Complete response: Number of tumors on given study day: 11 treated tumors in 10 dogs; for Healing: Cumulative % / Healing: Number of tumor sites healed on given study day: 11 treated tumors
Experimental: The study of Example 1 was repeated. The drug used was Compound 1 formulated in 40% propylene glycol and 30 MM acetate buffer at pH 4.2.
While tumor evaluation and measurement data for 11 cases are presented, this actually represents only 10 dogs, one of which had two tumors treated consecutively (identified as cases SI-01 and SI-02). PK sampling was performed only once for this dog (SI-01).
Of the other ten tumors, nine were considered CR by day 7 (+2) and one was CR by day 14 (+2). The investigator also reported that all of these tumors remained a CR on day 28 […].
Healing was more variable for the cases, with one healed at the day 14 visit and over half the tumor sites healed by the day 28 visit. The two cases with the largest tumor volumes at day 0 (SI-04 5.6 cm^3, and SI-11 6.8 cm^3) required healing time beyond the day 28 visit, i.e., an additional four weeks for SI-04 and an additional 19.7 weeks for SI-11. For SI-11, it was noted the dog was licking the tumor site and the investigator felt it may have prolonged the healing time. The investigator believed the wound required intervention on this case that included debridement once on study day 56 followed by periodic bandage replacement.

[3] = Example 2: body weights, clinical examinations and adverse events (VCOG-CTCAE); format: in vivo, dogs; set-up: key to Local swelling at treatment site: VCOG-CTCAE Grade classification / Pain associated with treatment site: VCOG-CTCAE Grade classification / Transient tachypnoea: VCOG-CTCAE Grade classification / Transient lethargy: VCOG-CTCAE Grade classification / Transient tachycardia: VCOG-CTCAE Grade classification / Transient elevated blood pressure reading: VCOG-CTCAE Grade classification / Transient salivation: VCOG-CTCAE Grade classification / Emesis: VCOG-CTCAE Grade classification / Wound sinus: VCOG-CTCAE Grade classification: ‘mild’ VCOG-CTCAE classification Grade 1 with no intervention required
Experimental: Body weights were collected on each enrolled dog at screening, immediately pre-treatment, at approximately 24 hours, 48 hours post-treatment, and at 7(+1) days, 14(+1) days and 21(+2) days post treatment. The percent bodyweight change is calculated as the difference between immediate pre-treatment and Day 21 (+2) post-treatment values. A positive value indicates weight gain, a negative value indicates weight loss.
Clinical parameters such as rectal temperature (° C.), heart rate (HR) per minute, respiratory rate (RR) per minute, capillary refill time (CRT) (sec), systolic and diastolic blood pressure (mmHg), and mucosal colour were collected on each enrolled dog at screening, immediately pre-treatment, at approximately 24 hours, 48 hours post-treatment, and at 7(±1), 14(±1) and 21(±2) days post treatment. With each parameter evaluated for trends over time, and in context with all other contemporaneously collected parameters, the clinical parameter data is deemed unremarkable for all trial dogs.
Dogs were evaluated for adverse events (AEs) on Days 0 (pre-treatment), 1, 2, 7(±1), 14(±1) and 21(±2) as well as interim timepoints if needed. An AE was defined as any unfavorable and unintended sign, symptom, or disease temporally associated with the use of Compound 1, whether or not related to the product (VCOG-CTCAE 2011).

[4] = cohort 3, 0.2 mg/mL, out of 7 dogs

Compound: C/C=C(\C)C(=O)O[C@@H]1[C@@H](C)[C@@]2(O)[C@H]([C@@H]3C(C)(C)[C@]13OC(=O)[C@@H](C)CC)[C@@H]1O[C@]1(CO)[C@@H](O)[C@]1(O)C(=O)C(C)=C[C@H]12 [Compound 1, 12-tigloyl-13-(2-methylbutanoyl)-6,7-epoxy-4,5,9,12,13,20-hexahydroxy-1-tigliaen-3-one]
- Tumor recurrence at the treatment site during the post treatment examination period ([1]; 8 dogs, examined out to 11.9 to 15.0 months post treatment): No tumor recurrence
- Tumor recurrence at case follow-up post treatment ([1]; cohort 1 dogs (1.0 mg/mL), one value per dog and examination, months 1-14 post treatment): Nil
- Day on which tumor recurrence was reported ([1]; dog NVC-110, 42 days after study completion): 63 days
- Response of the five cases with leakage of IVP upon injection ([2]; SI-01, SI-02, SI-04, SI-05, SI-10, on or before the day 14 visit): complete response
- Complete response: Cumulative % ([2]; Study day 7 (+2)): 82%
- Complete response: Number of tumors on given study day ([2]; Study day 7 (+2)): 9
- Healing: Cumulative % ([2]; Study day 14 (+2)): 9%
- Healing: Number of tumor sites healed on given study day ([2]; Study day 14 (+2)): 1
- Complete response: Cumulative % ([2]; Study day 14 (+2)): 91%
- Complete response: Number of tumors on given study day ([2]; Study day 14 (+2)): 1
- Healing: Cumulative % ([2]; Study day 28 (+4)): 55%
- Healing: Number of tumor sites healed on given study day ([2]; Study day 28 (+4)): 5
- Healing: Cumulative % ([2]; Study day 33): 64%
- Healing: Number of tumor sites healed on given study day ([2]; Study day 33): 1
- Healing: Cumulative % ([2]; Study day 42): 73%
- Healing: Number of tumor sites healed on given study day ([2]; Study day 42): 1
- Healing: Cumulative % ([2]; Study day 56): 82%
- Healing: Number of tumor sites healed on given study day ([2]; Study day 56): 1
- Healing: Cumulative % ([2]; Study day 166): 91%
- Healing: Number of tumor sites healed on given study day ([2]; Study day 166): 1
- Change of tumor volumes after drug treatment ([2]; all tumors with the exception of SI-03): decreased in size
- Course of MCT despite drug treatment ([2]; case SI-03, withdrawn after day 28 visit): continued to enlarge
- Additional healing time beyond the day 28 visit ([2]; case SI-11, tumor volume 6.8 cm^3 at day 0, dog licking site, debridement day 56): 19.7 weeks
- Status of the ten responding tumors on day 28 (+4) ([2]; investigator report): remained a CR
- Number of tumors with a complete response (CR) during the study ([2]; of 11 tumors): Ten
- Percent of tumors with a complete response (CR) during the study ([2]; of 11 tumors): 90.9%
- Number of tumors considered CR by day 7 (+2) ([2]; of ten responding tumors): nine
- Number of tumors CR by day 14 (+2) ([2]; of ten responding tumors, not CR by day 7): one
- Number of cases healed at the day 14 visit ([2]; tumor site healing): one
- Share of tumor sites healed by the day 28 visit ([2]; tumor site healing): over half
- Pain associated with treatment site: Incidence (%) ([3]; Grade 1, all patients (n = 27)): 14.8%
- Pain associated with treatment site: No. of events ([3]; Grade 1, all patients (n = 27)): 4
- Pain associated with treatment site (oral analgesic): Incidence (%) ([3]; Grade 2, all patients (n = 27)): 22.2%
- Pain associated with treatment site (oral analgesic): No. of events ([3]; Grade 2, all patients (n = 27)): 6
- Bilateral otitis externa (oral antibiotic): Incidence (%) ([3]; all patients (n = 27)): 3.7%
- Bilateral otitis externa (oral antibiotic): No. of events ([3]; all patients (n = 27)): 1
- Bilateral otitis externa (oral antibiotic): VCOG-CTCAE Grade classification ([3]; all patients (n = 27)): 2
- Corneal ulcer (antibiotic ointment and oral analgesic): Incidence (%) ([3]; all patients (n = 27)): 3.7%
- Corneal ulcer (antibiotic ointment and oral analgesic): No. of events ([3]; all patients (n = 27)): 1
- Corneal ulcer (antibiotic ointment and oral analgesic): VCOG-CTCAE Grade classification ([3]; all patients (n = 27)): 2
- Emesis: Incidence (%) ([3]; all patients (n = 27)): 7.4%
- Emesis: No. of events ([3]; all patients (n = 27)): 2
- Emesis: VCOG-CTCAE Grade classification ([3]; all patients (n = 27)): 1
- Flatulence (oral antibiotic): Incidence (%) ([3]; all patients (n = 27)): 3.7%
- Flatulence (oral antibiotic): No. of events ([3]; all patients (n = 27)): 1
- Flatulence (oral antibiotic): VCOG-CTCAE Grade classification ([3]; all patients (n = 27)): 2
- Local swelling at treatment site: Incidence (%) ([3]; all patients (n = 27)): 81.5%
- Local swelling at treatment site: No. of events ([3]; all patients (n = 27)): 22
- Local swelling at treatment site: VCOG-CTCAE Grade classification ([3]; all patients (n = 27)): 1
- Number of AEs of ‘mild’ VCOG-CTCAE Grade 1 (no intervention required) ([3]; all patients (n = 27)): 52
- Number of AEs requiring minimal medical intervention or additional analgesic therapy ([3]; all patients (n = 27)): 12
- Pain associated with treatment site (oral analgesic): VCOG-CTCAE Grade classification ([3]; all patients (n = 27)): 2
- Seborrhoea (oral antibiotic): Incidence (%) ([3]; all patients (n = 27)): 3.7%
- Seborrhoea (oral antibiotic): No. of events ([3]; all patients (n = 27)): 1
- Seborrhoea (oral antibiotic): VCOG-CTCAE Grade classification ([3]; all patients (n = 27)): 2
- Transient elevated blood pressure reading: Incidence (%) ([3]; all patients (n = 27)): 3.7%
- Transient elevated blood pressure reading: No. of events ([3]; all patients (n = 27)): 1
- Transient elevated blood pressure reading: VCOG-CTCAE Grade classification ([3]; all patients (n = 27)): 1
- Transient lethargy: Incidence (%) ([3]; all patients (n = 27)): 18.5%
- Transient lethargy: No. of events ([3]; all patients (n = 27)): 5
- Transient lethargy: VCOG-CTCAE Grade classification ([3]; all patients (n = 27)): 1
- Transient salivation: Incidence (%) ([3]; all patients (n = 27)): 3.7%
- Transient salivation: No. of events ([3]; all patients (n = 27)): 1
- Transient salivation: VCOG-CTCAE Grade classification ([3]; all patients (n = 27)): 1
- Transient tachycardia: Incidence (%) ([3]; all patients (n = 27)): 7.4%
- Transient tachycardia: No. of events ([3]; all patients (n = 27)): 2
- Transient tachycardia: VCOG-CTCAE Grade classification ([3]; all patients (n = 27)): 1
- Transient tachypnoea: Incidence (%) ([3]; all patients (n = 27)): 51.9%
- Transient tachypnoea: No. of events ([3]; all patients (n = 27)): 14
- Transient tachypnoea: VCOG-CTCAE Grade classification ([3]; all patients (n = 27)): 1
- Wound infection (oral antibiotic): Incidence (%) ([3]; all patients (n = 27)): 7.4%
- Wound infection (oral antibiotic): No. of events ([3]; all patients (n = 27)): 2
- Wound infection (oral antibiotic): VCOG-CTCAE Grade classification ([3]; all patients (n = 27)): 2
- Wound sinus: Incidence (%) ([3]; all patients (n = 27)): 3.7%
- Wound sinus: No. of events ([3]; all patients (n = 27)): 1
- Wound sinus: VCOG-CTCAE Grade classification ([3]; all patients (n = 27)): 1
- Total number of AEs identified ([3]; all patients (n = 27), 15 event types): 64
- Clinical parameter data (temperature, HR, RR, CRT, blood pressure, mucosal colour) ([3]; all trial dogs, screening to Day 21): unremarkable
- Number of dogs that lost weight ([3]; cohort 1, 1.0 mg/mL): 3
- Number of dogs that gained weight during the trial ([3]; cohort 1, 1.0 mg/mL, out of 10 dogs, pre-treatment to Day 21): 6
- Largest recorded weight loss ([3]; cohort 1, dog NVC-103): 3.9%
- Number of dogs that lost body weight ([3]; cohort 2, 0.5 mg/mL, out of 10 dogs): 9
- Largest recorded weight loss ([3]; cohort 2, dog GCV-204): 5.6%
- Number of dogs that gained weight [3, 4]: 3
- Number of dogs that lost weight [3, 4]: 4
- Largest recorded weight loss ([3]; cohort 3, dog NVC-304): 9.2%
- Body weight gain ([3]; dog NVC-102, cohort 1): 15%
- Pain associated with treatment site: VCOG-CTCAE Grade classification ([3]; no intervention, all patients (n = 27)): 1
